Reference: PubChem BioAssay AID1963840 (Molecular Pharmacology Branch, DTP, NCI, 2024)
Where “and” joins values, the source holds several entries; their conditions need not be identical. Identical values can stand only once.

System: 695427-040-R-J1-PDC complex spheroid viability
Experiment: Anticancer human tumor 695427-040-R-J1-PDC patient-derived colon adenocarcinoma cell line growth inhibition [POLQ]
Details: for viability, T/C: stronger effect = lower value
Method: Multicellular complex tumor spheroid response to Polymerase (POL) inhibitors (novobiocin, ART-558, RP6685) in combination with a variety of drugs and investigational agents in selected tumor cell lines
The POL inhibitors (novobiocin, ART-558, and RP6685) were evaluated both individually and in combination with standard of care and investigational anticancer small molecules within a complex spheroid model of solid tumors. . Complex spheroids include a stromal component modeled by human endothelial cells (HUVEC) and fibroblasts modeled by human mesenchymal stem cells (MSCs). The concentration ranges selected for each drug and investigational agent were based upon clinically achievable concentrations if the clinical Cmax of the agent was known.
Compounds. The drugs and investigational agents: novobiocin (NSC847541), ART-558 (NSC835418), RP-6685 (NSC848927), peposertib (NSC802822), ceralasertib (NSC780249), elimusertib (NSC800525), camonsertib (NSC841442), AZD-1390 (NSC803789), olaparib (NSC753686), talazoparib (NSC767125), rucaparib (NSC756644), sotorasib (NSC818433), MRTX-1133 (NSC836407), SN-38 (NSC673596), topotecan (NSC609699), epotoside (NSC141540), doxorubicin (NSC123127), gemcitabine (NSC613327), 5-fluorouracil (NSC19893), paclitaxel (NSC125973), vemurafenib (NSC761431), MSA-2 (NSC828583), SN-011 (NSC837082), adavosertib (NSC754352), prexasertib (NSC758257), carboplatin (NSC241240) and oxaliplatin (NSC266046), were obtained from the National Cancer Institute (NCI) Developmental Therapeutics Program Chemical Repository (21). The FDA-approved anticancer drug set is available from the Developmental Therapeutics Program at https://dtp.cancer.gov/organization/dscb/obtaining/. […] The stock solutions were prepared in dimethyl sulfoxide (DMSO, Sigma-Aldrich, St. Louis, MO, cat. D2650), except for the platinum compounds which were prepared in saline (Quality Biological, Gaithersburg, MD, cat. 114-055-101), at 800-fold the tested concentration and stored at -70 degrees C prior to their use. All drugs and investigational agents were tested over a range starting from a high concentration at or near the clinical Cmax and decreasing in half-log increments. If the clinical Cmax for an agent had not been determined, the highest concentration tested was 10 microM, except for SN-38, which was tested at a high concentration of 1 microM.
Cell Culture. All cells were maintained in an incubator at 37 degrees C and 5% CO2 with 95% humidity. The PDC lines were cultured according to standard operating procedures established by the NCI PDMR (https://pdmr.cancer.gov). Table 3 of the manuscript, lists the cell lines along with the number of the three cell types plated to form the mct-spheroids and media for tumor cell growth. After thawing, all PDC lines, except 997537-175-T-J1-PDC and 415267-285-R-J2-PDC, were cultured in Matrigel-coated flasks prepared with a working solution of 1X Ham's F-12 nutrient mix, without supplementation (Thermo Fisher Scientific, cat. 11765054), 100 U/mL penicillin-streptomycin (Thermo Fisher Scientific, cat. 15140122), and 2.5% Matrigel (Corning Inc., Corning, NY, cat. 354248) for the first three passages. The two PDC lines 997537-175-T-J1-PDC and 415267-285-R-J2-PDC were cultured on uncoated flasks. The 857933-349-R-J2-PDC line was cultured in 6C/Colon 1B media containing advanced DMEM/F-12 (Thermo Fisher Scientific, cat. 12634028), 10 mM HEPES (Thermo Fisher Scientific, cat. 15630080), 1X GlutaMAX supplement (Thermo Fisher Scientific, cat. 35050061), 0.1 mg/mL primocin (InvivoGen, San Diego, CA, cat. ant-pm-2), 10% defined fetal bovine serum, heat inactivated (HyClone Laboratories Inc., Logan, UT, cat. SH30070.03HI), 50% L-WRN conditioned media (ATCC, cat. CRL-3276), 1.25 mM N-Acetyl-L-cysteine (Sigma-Aldrich, cat. A9165), 10 mM nicotinamide (Sigma-Aldrich, cat. N0636), 1X B-27 supplement (Thermo Fisher Scientific, cat. 17504044), 1X N-2 supplement (Thermo Fisher Scientific, cat. […]

[1] = compound alone, run of 10/31/2023
[2] = compound alone, run of 11/06/2023
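Also: spheroids exposed to compounds for seven days.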
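For viability, T/C in this document: 100% = DMSO vehicle control viability.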

Structure (SMILES)	viability, T/C (compound 0.0316 µM)	viability, T/C (compound 0.1 µM)	viability, T/C (compound 0.316 µM)	viability, T/C (compound 1 µM)	viability, T/C (compound 3.16 µM)	viability, T/C (compound 10 µM)	IC50 [1]	IC50 (curve of compound)	viability, T/C (compound 0.00316 µM)	viability, T/C (compound 0.01 µM)	IC50 [2]	viability, T/C (compound 0.000316 µM)	viability, T/C (compound 0.001 µM)
COC1C(OC(N)=O)C(O)C(Oc2ccc3c(O)c(NC(=O)c4ccc(O)c(CC=C(C)C)c4)c(=O)oc3c2C)OC1(C)C (configuration not stated)	104% [middle of 13 runs]	104% [middle of 13 runs]	106% [middle of 13 runs]	106% [middle of 13 runs]	110% [middle of 13 runs]	110% [middle of 13 runs]	> 10 µM						
COc1cc(C2c3cc4c(cc3C(OC3OC5COC(C)OC5C(O)C3O)C3COC(=O)C23)OCO4)cc(OC)c1O (configuration not stated)	95.6% and 105% and 95.5%	91.4% and 94.1% and 99%	96% and 96.6% and 109%	97.5% (2×) and 101%	91.6% and 99.4% and 94.1%	90.2% and 90.4% and 80.9%		> 10 µM					
COc1cc2cc(C(=O)CCC(=O)O)sc2cc1OC	109% and 100% and 101%	97.3% and 102% and 99.5%	97.4% and 105% and 103%	104% and 105% and 107%	103% and 102% (2×)	99.8% and 93.7% and 102%		> 10 µM					
COc1ccc([C@@H](O)c2cc(-c3ncnc4cc(N5CCOCC5)ccc34)c(F)cc2Cl)nn1	108% and 103% (2×)	91.8% and 86.1% and 99.5%	92.8% and 93.3% and 97.7%	91.9% and 94.2% and 96.2%	80.1% and 82.6% and 85%	50% and 59% and 56.5%		> 10 µM					
COc1cccc(OCCCN)c1-c1cc(Nc2cnc(C#N)cn2)n[nH]1	80.9% and 87.1% and 92.6%	76% and 75.7% and 85.2%	53.1% and 74.3% and 72.6%	37.3% and 50.5% and 55.4%				0.448 µM and > 1 µM	94.2% and 94.8% and 102%	84.4% and 93.3% and 91.1%			
COc1cccc2c1C(=O)c1c(O)c3c(c(O)c1C2=O)CC(O)(C(=O)CO)CC3OC1CC(N)C(O)C(C)O1 (configuration not stated)	87.5% and 98.1% and 92.7%	96.2% and 87.2% and 90.7%	95% and 96.7% and 101%	71.2% and 89.7% and 82.5%	66% and 74% and 68.7%	57.1% and 69.8% and 53.8%		> 10 µM					
Cc1cccc(N(C)C(=O)C2C(O)CCN2c2nc(C)cc(C(F)(F)F)c2C#N)c1 (configuration not stated)	102% [middle of 13 runs]	101% [middle of 13 runs]	100% [middle of 13 runs]	100% [middle of 13 runs]	99% [middle of 13 runs]	100% [middle of 13 runs]	> 10 µM				> 10 µM		
Cn1ncnc1[C@H]1c2n[nH]c(=O)c3cc(F)cc(c23)N[C@@H]1c1ccc(F)cc1	106% and 113% and 101%	89.5% and 97.1% and 94.2%						> 0.1 µM	109% and 102% and 99.2%	101% and 109% and 104%		105% and 96.4% and 102%	97.7% and 91% and 93.6%
Nc1ccc(C#CCN(C(=O)Cc2ncc(C(F)(F)F)cc2C(F)(F)F)c2ccc(F)cc2)nn1	91.6% [middle of 13 runs]	102% [middle of 13 runs]	101% [middle of 13 runs]	101% [middle of 13 runs]	102% [middle of 13 runs]	105% [middle of 12 runs]					> 10 µM		
Nc1ccn(C2OC(CO)C(O)C2(F)F)c(=O)n1 (configuration not stated)	90% and 87.3% (2×)	76.8% and 89.3% and 78.8%	70.9% and 83.7% and 72%	71.8% and 78.5% and 69%	64.6% and 81.7% and 60.8%	57.5% and 64.6% and 53%		> 10 µM					
O=C(Nc1ccc(O)c(NS(=O)(=O)c2ccc(F)cc2)c1)c1ccc(-c2ccccc2)cc1	112% and 106% (2×)	94.9% and 102% and 99.2%	99.2% and 96.5% and 105%	106% and 111% and 105%	102% and 101% and 110%	94% and 98.5% and 90.2%		> 10 µM					
O=C(c1cc(Cc2n[nH]c(=O)c3ccccc23)ccc1F)N1CCN(C(=O)C2CC2)CC1	102% and 101% (2×)	87.2% and 107% and 101%	102% and 110% and 100%	99% and 107% and 102%	101% and 102% and 114%	97.8% and 97.4% and 107%		> 10 µM					
O=c1[nH]cc(F)c(=O)[nH]1	105% (2×) and 104%	95.7% and 106% and 103%	93.2% and 102% and 99.6%	102% and 100% (2×)	102% and 115% and 103%	96% and 111% and 99.7%		> 10 µM					
